Reference: ChEMBL document CHEMBL5380871

Columns and labels:
[1] = target: T1, Complement C1s subcomponent (Homo sapiens, UniProt P09871); assay: Binding affinity to human C1S assessed as inhibition constant
T1 sequence (P09871 whole entry): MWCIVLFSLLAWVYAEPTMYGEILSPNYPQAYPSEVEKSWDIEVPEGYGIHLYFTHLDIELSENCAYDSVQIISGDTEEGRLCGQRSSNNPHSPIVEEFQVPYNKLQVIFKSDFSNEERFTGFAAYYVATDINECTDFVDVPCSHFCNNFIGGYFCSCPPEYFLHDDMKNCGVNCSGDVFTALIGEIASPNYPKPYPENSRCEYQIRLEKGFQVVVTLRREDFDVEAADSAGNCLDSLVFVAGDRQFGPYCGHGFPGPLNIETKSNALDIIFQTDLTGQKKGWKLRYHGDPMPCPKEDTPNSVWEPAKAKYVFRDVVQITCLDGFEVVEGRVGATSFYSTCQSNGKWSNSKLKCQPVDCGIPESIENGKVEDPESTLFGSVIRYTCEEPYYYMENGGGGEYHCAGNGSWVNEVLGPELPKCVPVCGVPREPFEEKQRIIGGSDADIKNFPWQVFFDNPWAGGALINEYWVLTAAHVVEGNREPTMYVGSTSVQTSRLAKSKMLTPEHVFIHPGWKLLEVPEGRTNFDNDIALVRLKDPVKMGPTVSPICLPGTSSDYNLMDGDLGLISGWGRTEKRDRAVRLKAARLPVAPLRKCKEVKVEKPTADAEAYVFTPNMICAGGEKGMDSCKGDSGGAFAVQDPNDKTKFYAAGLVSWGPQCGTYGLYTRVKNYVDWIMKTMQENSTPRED

[2] = target: T2, Complement C1r subcomponent (Homo sapiens, UniProt P00736); assay: Binding affinity to C1R (unknown origin) assessed as inhibition constant
T2 sequence (P00736 whole entry): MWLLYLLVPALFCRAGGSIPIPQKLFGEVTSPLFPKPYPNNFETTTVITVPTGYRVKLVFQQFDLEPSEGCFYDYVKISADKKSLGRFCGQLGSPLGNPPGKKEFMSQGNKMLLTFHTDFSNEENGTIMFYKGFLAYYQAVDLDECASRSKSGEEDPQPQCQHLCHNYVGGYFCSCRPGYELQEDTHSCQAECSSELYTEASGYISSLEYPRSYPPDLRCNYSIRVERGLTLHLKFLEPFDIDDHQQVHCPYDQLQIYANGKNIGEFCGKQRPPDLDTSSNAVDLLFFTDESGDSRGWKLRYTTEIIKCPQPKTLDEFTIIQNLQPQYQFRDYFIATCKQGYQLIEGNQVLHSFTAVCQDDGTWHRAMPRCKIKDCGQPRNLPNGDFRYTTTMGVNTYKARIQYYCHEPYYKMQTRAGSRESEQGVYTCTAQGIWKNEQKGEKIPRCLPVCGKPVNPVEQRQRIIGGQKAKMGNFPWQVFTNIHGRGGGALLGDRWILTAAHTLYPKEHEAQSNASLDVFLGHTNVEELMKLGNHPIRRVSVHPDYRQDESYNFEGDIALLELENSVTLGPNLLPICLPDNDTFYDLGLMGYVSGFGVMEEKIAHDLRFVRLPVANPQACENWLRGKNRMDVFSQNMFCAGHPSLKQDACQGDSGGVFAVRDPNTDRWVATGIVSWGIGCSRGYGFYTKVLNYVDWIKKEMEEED

Prothrombin = Prothrombin (Homo sapiens, UniProt P00734); assay: Binding affinity to thrombin (unknown origin) assessed as inhibition constant
Trypsin = Trypsin (Homo sapiens, UniProt P07477+P07478+P35030); assay: Binding affinity to trypsin (unknown origin) assessed as inhibition constant; type: protein assay
Complement factor D = Complement factor D (Homo sapiens, UniProt P00746); assay: Binding affinity to factor D (unknown origin) assessed as inhibition constant
Complement factor D, sequence (P00746 whole entry): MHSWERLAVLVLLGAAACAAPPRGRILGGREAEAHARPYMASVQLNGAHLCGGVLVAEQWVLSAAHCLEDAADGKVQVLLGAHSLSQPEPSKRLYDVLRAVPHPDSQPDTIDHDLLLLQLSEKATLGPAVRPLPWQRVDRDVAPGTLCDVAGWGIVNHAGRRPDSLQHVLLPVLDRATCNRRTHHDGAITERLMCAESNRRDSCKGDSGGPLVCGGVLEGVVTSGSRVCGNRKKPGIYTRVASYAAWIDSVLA

[3] = Inhibition of human recombinant kallikrein using Pro-Phe-Arg-AMC as substrate pretreated with compound followed by substrate addition incubated for 60 mins by multilabel plate reader method

Ki [1] | Ki [2] | Ki (Prothrombin) | Ki (Trypsin) | Ki (Complement factor D) | IC50 [3] | Compound
0.07 µM | ≥ 50 µM | > 50 µM | 0.18 µM | 3.7 µM | – | CCCc1c(-c2csc(-c3cc(C(=N)N)sc3SC)n2)cnn1-c1ccccn1
– | – | – | – | – | > 30 µM | Cc1cc([C@H]2CN(c3cc(F)c4c(N)nncc4c3)CCN2c2cccc(F)c2)no1
